Data published in patent US7709497B2, “Pyrazolo[3,4-b]pyridine compound, and its use as a PDE4 inhibitor” (Glaxo Group Limited, priority 2004, dated 2010).

Legend:
[1] = target: T1, PDE4B (human recombinant) (Homo sapiens, UniProt Q07343); assay: PDE4B inhibition, IMAP Fluorescence Polarisation (FP) assay; type: biochemical; details: n = 2; accuracy ±about 0.5 log unit; read-out: PDE4B pIC50 (FP assay, mean value) (converted)
T1 construct: made in house; host or cells: Saccharomyces cerevisiae strain GL62 (PDE-deficient yeast)
T1 sequence (Q07343 1-564 isoform Q07343-2): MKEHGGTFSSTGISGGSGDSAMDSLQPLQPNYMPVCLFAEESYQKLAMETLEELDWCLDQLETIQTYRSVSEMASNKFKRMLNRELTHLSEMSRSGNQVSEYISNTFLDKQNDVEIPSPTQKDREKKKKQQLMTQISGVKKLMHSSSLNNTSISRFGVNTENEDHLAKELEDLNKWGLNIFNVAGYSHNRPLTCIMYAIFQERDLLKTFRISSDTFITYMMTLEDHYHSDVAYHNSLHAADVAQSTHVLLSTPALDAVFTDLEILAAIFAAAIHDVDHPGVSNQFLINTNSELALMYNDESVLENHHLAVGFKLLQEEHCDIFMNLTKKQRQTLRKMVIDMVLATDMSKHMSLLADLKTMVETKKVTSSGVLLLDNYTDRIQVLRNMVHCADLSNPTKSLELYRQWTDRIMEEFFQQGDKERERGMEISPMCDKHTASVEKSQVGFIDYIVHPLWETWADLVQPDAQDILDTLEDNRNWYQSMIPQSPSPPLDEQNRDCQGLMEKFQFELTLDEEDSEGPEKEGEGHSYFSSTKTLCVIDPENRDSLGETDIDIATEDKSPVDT
Description: Human recombinant PDE4B, in particular the 2B splice variant thereof (HSPDE4B2B), is disclosed in WO 94/20079 and also M. M. McLaughlin et al., “A low Km, rolipram-sensitive, cAMP-specific phosphodiesterase from human brain: cloning and expression of cDNA, biochemical characterisation of recombinant protein, and tissue distribution of mRNA”, J. Biol. Chem., 1993, 268, 6470-6476. […]
(§1) The ability of compounds to inhibit catalytic activity at PDE4B (human recombinant) or PDE4D (human recombinant) can optionally be determined by IMAP Fluorescence Polarisation (FP) assay (IMAP Explorer kit, available from Molecular Devices Corporation, Sunnydale, Calif., USA; Molecular Devices code: R8062) in a 384-well format.
(§2) The IMAP FP assay is able to measure PDE activity in an homogenous, non-radioactive assay format. […] Binding of Fl-AMP product to the beads (coated with the immobilised trivalent cations) slows the rotation of the bound Fl-AMP and leads to an increase in the fluorescence polarisation ratio of parallel to perpendicular light. […]
Biological Data obtained for Example 1 and/or Example 1A (i.e. the compound of formula (I)) (PDE4B and PDE4D inhibitory activities, usually as an average of more than one reading) are as follows, based on current measurements only, and using the above or similar or analogous assay methods. […]

[2] = target: PDE4D (human recombinant) (Homo sapiens, UniProt Q08499); assay: PDE4D inhibition, IMAP Fluorescence Polarisation (FP) assay; type: biochemical; details: n = 2; accuracy ±about 0.5 log unit; read-out: PDE4D pIC50 (FP assay, mean value) (converted)
PDE4D (human recombinant), sequence (Q08499 1-673 isoform Q08499-2): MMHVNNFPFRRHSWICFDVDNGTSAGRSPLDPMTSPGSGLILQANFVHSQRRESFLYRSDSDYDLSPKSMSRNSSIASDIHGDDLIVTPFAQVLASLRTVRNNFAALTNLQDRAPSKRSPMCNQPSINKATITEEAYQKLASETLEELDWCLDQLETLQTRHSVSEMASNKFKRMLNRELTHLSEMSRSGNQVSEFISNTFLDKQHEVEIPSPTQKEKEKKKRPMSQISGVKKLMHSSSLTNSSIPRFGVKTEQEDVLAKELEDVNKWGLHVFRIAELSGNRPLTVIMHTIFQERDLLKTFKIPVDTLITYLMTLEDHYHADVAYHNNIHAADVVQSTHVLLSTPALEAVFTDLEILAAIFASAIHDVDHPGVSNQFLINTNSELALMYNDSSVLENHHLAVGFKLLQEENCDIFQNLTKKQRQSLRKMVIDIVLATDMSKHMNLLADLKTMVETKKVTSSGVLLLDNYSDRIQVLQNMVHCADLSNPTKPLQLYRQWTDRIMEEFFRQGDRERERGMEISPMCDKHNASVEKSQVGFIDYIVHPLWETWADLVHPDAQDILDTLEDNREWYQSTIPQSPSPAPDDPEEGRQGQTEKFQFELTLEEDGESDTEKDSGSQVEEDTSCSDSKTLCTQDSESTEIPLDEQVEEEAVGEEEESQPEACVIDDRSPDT
Description: Human recombinant PDE4D (HSPDE4D3A) is disclosed in P. A. Baecker et al., “Isolation of a cDNA encoding a human rolipram-sensitive cyclic AMP phoshodiesterase (PDE IVD)”, Gene, 1994, 138, 253-256.
as §1, §2
Test compounds (small volume, e.g. ca. 0.5 to 1 microliters (ul), preferably ca. 0.5 ul, of solution in DMSO) are preincubated at ambient temperature (room temperature, e.g. 19-23° C.) in black 384-well microtitre plates (supplier: NUNC, code 262260) with PDE enzyme in 10 mM Tris-HCl buffer pH 7.2, 10 mM MgCl2, 0.1% (w/v) bovine serum albumin, and 0.05% NaN3 for 10-30 minutes. […] The Fluorescence Polarisation (FP) ratio of parallel to perpendicular light is measured using an Analyst™ plate reader (from Molecular Devices Corporation). […]

With `CCn1ncc2c(NC3CCN(C(N)=O)CC3)c(C(=O)NCc3ccc(C)c(C)c3)cnc21` [compound of formula (I), 4-{[1-(aminocarbonyl)-4-piperidinyl]amino}-N-[(3,4-dimethylphenyl)methyl]-1-ethyl-1H-pyrazolo[3,4-b]pyridine-5-carboxamide] the IC50 [1] was 0.676 nM and the IC50 [2] was 0.55 nM.
